In the test the target is SOS1/KRAS WT (Homo sapiens (Human), UniProt Q07889). As to the kind of experiment: SOS1/KRAS WT HTRF binding assay (FRET-based protein-protein interaction). The conditions noted are these: inhibition of His6-SOS1 (aa564-1049, 40 nM) binding to GST-KRAS-WT (aa1-188, 40 nM); at least two independent replicates; read-out: SOS1/KRAS WT HTRF Binding assay pIC50 (converted). Put shortly: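 GST-KRAS WT (aa1-188, 40 nM) and His6-SOS1 exchange domain (aa564-1049, 40 nM) were incubated 60 min at room temperature with compound dose response in HEPES pH7.3 buffer with 10 mM EDTA and 100 mM KF. Anti-GST-Eu(K)/anti-6His-XL665 HTRF was read after 4 hr, and IC50 came from a four-parameter fit (≥2 replicates).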
Sequence of SOS1/KRAS WT (Q07889 564-1049): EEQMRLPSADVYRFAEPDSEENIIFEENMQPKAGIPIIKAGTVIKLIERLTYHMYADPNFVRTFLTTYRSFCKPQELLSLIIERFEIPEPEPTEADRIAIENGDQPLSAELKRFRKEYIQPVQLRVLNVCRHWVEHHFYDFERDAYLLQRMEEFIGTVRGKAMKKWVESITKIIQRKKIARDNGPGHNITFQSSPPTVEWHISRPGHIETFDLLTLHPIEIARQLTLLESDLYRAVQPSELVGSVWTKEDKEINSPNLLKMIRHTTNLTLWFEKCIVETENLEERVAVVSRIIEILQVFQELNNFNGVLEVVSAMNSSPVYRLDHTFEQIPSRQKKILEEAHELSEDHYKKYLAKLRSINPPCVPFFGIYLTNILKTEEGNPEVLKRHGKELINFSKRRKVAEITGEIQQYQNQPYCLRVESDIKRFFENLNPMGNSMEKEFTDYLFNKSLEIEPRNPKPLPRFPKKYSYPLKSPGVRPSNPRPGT
With `COC1(C)C(=O)N(C)c2cc3c(N[C@H](C)c4cc(F)cc(C(F)(F)C(C)(C)O)c4)nnc(C)c3cc21` (stereo partly drawn) [Compound 175, 3-methoxy-1,3,5-trimethyl-8-[[(1R)-1-[3-(1,1-difluoro-2-hydroxy-2-methyl-propyl)-5-fluoro-phenyl]ethyl]amino]pyrrolo[2,3-g]phthalazin-2-one], the IC50 was 0.0145 µM.
For `COC1(C)C(=O)N(C)c2cc3c(C)nnc(N[C@H](C)c4cccc(C(F)(F)CO)c4F)c3cc21` (stereo partly drawn) [Compound 176, 3-methoxy-1,3,8-trimethyl-5-[[(1R)-1-[3-(1,1-difluoro-2-hydroxy-ethyl)-2-fluoro-phenyl]ethyl]amino]pyrrolo[3,2-g]phthalazin-2-one], the IC50 is 0.0107 µM.
With `COC1(C)C(=O)N(C)c2cc3c(C)nnc(N[C@H](C)c4cccc(C(F)(F)CO)c4C)c3cc21` (stereo partly drawn) [Compound 177, 3-methoxy-1,3,8-trimethyl-5-[[(1R)-1-[3-(1,1-difluoro-2-hydroxy-ethyl)-2-methyl-phenyl]ethyl]amino]pyrrolo[3,2-g]phthalazin-2-one], the IC50 is 0.00977 µM.
The same measure for `COC1(C)C(=O)N(C)c2cc3c(C)nnc(N[C@H](C)c4cccc(C(F)(F)CO)c4)c3cc21` (stereo partly drawn) [Compound 178, 3-methoxy-1,3,8-trimethyl-5-[[(1R)-1-[3-(1,1-difluoro-2-hydroxy-ethyl)phenyl]ethyl]amino]pyrrolo [3,2-g]phthalazin-2-one]: 0.0166 µM; for `COC1(C)C(=O)N(C)c2cc3c(C)nnc(N[C@H](C)c4cccc(C(F)(F)C(C)(C)O)c4F)c3cc21` (stereo partly drawn) [Compound 179, 3-methoxy-1,3,8-trimethyl-5-[[(1R)-1-[3-(1,1-difluoro-2-hydroxy-2-methyl-propyl)-2-fluoro-phenyl]ethyl]amino]pyrrolo[3,2-g]phthalazin-2-one]: 0.0102 µM.
The same measure for `COC1(C)C(=O)N(C)c2cc3c(C)nnc(N[C@H](C)c4cccc(C(F)(F)C(C)(C)O)c4)c3cc21` (stereo partly drawn) [Compound 180, 3-methoxy-1,3,8-trimethyl-5-[[(1R)-1-[3-(1,1-difluoro-2-hydroxy-2-methyl-propyl)phenyl]ethyl]amino]pyrrolo [3,2-g]phthalazin-2-one]: 0.012 µM; for `COC1(C)C(=O)N(C)c2cc3c(N[C@H](C)c4cc(F)cc(C(F)(F)C(C)(C)O)c4C)nnc(C)c3cc21` (stereo partly drawn) [Compound 181, 3-methoxy-1,3,5-trimethyl-8-[[(1R)-1-[3-(1,1-difluoro-2-hydroxy-2-methyl-propyl)-5-fluoro-2-methyl-phenyl]ethyl]amino]pyrrolo[2,3-g]phthalazin-2-one]: 0.0132 µM.
For the compound `COC1(C)C(=O)N(C)c2cc3c(N[C@H](C)c4cc(C)cc(C(F)(F)CO)c4C)nnc(C)c3cc21` (stereo partly drawn) [Compound 182, 3-methoxy-1,3,5-trimethyl-8-[[(1R)-1-[3-(1,1-difluoro-2-hydroxy-ethyl)-2,5-dimethyl-phenyl]ethyl]amino]pyrrolo[2,3-g]phthalazin-2-one], the IC50 is 0.00977 µM.
Take `COC1(C)C(=O)N(C)c2cc3c(N[C@H](C)c4cc(F)cc(C(F)(F)CO)c4C)nnc(C)c3cc21` (stereo partly drawn) [Compound 183, 3-methoxy-1,3,5-trimethyl-8-[[(1R)-1-[3-(1,1-difluoro-2-hydroxy-ethyl)-5-fluoro-2-methyl-phenyl]ethyl]amino]pyrrolo[2,3-g]phthalazin-2-one]: the IC50 is 0.011 µM.
In the case of `CCOC1(C)C(=O)N(C)c2cc3c(C)nnc(N[C@H](C)c4cccc(C(F)(F)C(C)(C)O)c4)c3cc21` (stereo partly drawn) [Compound 184, 3-ethoxy-1,3,8-trimethyl-5-[[(1R)-1-[3-(1,1-difluoro-2-hydroxy-2-methyl-propyl)phenyl]ethyl]amino]pyrrolo [3,2-g]phthalazin-2-one], the IC50 is 0.0148 µM.
Consider `CCOC1(C)C(=O)N(C)c2cc3c(C)nnc(N[C@H](C)c4cccc(C(F)(F)C(C)(C)O)c4C)c3cc21` (stereo partly drawn) [Compound 185, 3-ethoxy-1,3,8-trimethyl-5-[[(1R)-1-[3-(1,1-difluoro-2-hydroxy-2-methyl-propyl)-2-methyl-phenyl]ethyl]amino]pyrrolo[3,2-g]phthalazin-2-one], for which the IC50 is 0.0245 µM.
The figure for `Cc1c([C@@H](C)Nc2nnc(C)c3cc4c(cc23)N(C)C(=O)C42CCCC2)cccc1C(F)(F)C(C)(C)O` [Compound 186, 1′,5′-dimethyl-8′-[[(1R)-1-[3-(1,1-difluoro-2-hydroxy-2-methyl-propyl)-2-methyl-phenyl]ethyl]amino]spiro [cyclopentane-1,3′-pyrrolo[2,3-g]phthalazine]-2′-one] is 0.00832 µM; for `Cc1nnc(N[C@H](C)c2cc(F)cc(C(F)(F)CO)c2)c2cc3c(cc12)C1(CCCC1)C(=O)N3C` [Compound 187, 1′,5′-dimethyl-8′-[[(1R)-1-[3-(1,1-difluoro-2-hydroxy-ethyl)-5-fluoro-phenyl]ethyl]amino]spiro [cyclopentane-1,3′-pyrrolo[2,3-g]phthalazine]-2′-one] it is 0.0219 µM.
The same measure for `Cc1nnc(N[C@H](C)c2cccc(C(F)(F)C(C)(C)O)c2)c2cc3c(cc12)C1(CCCC1)C(=O)N3C` [Compound 188, 1′,5′-dimethyl-8′-[[(1R)-1-[3-(1,1-difluoro-2-hydroxy-2-methyl-propyl)phenyl]ethyl]amino]spiro [cyclopentane-1,3′-pyrrolo[2,3-g]phthalazine]-2′-one]: 0.00933 µM.
Take `Cc1nnc(N[C@H](C)c2cccc(C(F)(F)CO)c2F)c2cc3c(cc12)C1(CCCC1)C(=O)N3C` [Compound 189, 1′,5′-dimethyl-8′-[[(1R)-1-[3-(1,1-difluoro-2-hydroxy-ethyl)-2-fluoro-phenyl]ethyl]amino]spiro[cyclopentane-1,3′-pyrrolo[2,3-g]phthalazine]-2′-one]: the IC50 was 0.00676 µM.
Take `CCOC1(C)C(=O)N(C)c2cc3c(C)nnc(N[C@H](C)c4cccc(C(F)(F)C(C)(C)O)c4F)c3cc21` (stereo partly drawn) [Compound 190, 3-ethoxy-1,3,8-trimethyl-5-[[(1R)-1-[3-(1,1-difluoro-2-hydroxy-2-methyl-propyl)-2-fluoro-phenyl]ethyl]amino]pyrrolo[3,2-g]phthalazin-2-one]: the IC50 was 0.0166 µM.
On to `CCC1(OC)C(=O)N(C)c2cc3c(C)nnc(N[C@H](C)c4cccc(C(F)(F)C(C)(C)O)c4C)c3cc21` (stereo partly drawn) [Compound 191, 5-[[(1R)-1-[3-(1,1-difluoro-2-hydroxy-2-methyl-propyl)-2-methyl-phenyl]ethyl]amino]-3-ethyl-3-methoxy-1,8-dimethyl-pyrrolo[2,3-g]phthalazin-2-one], for which the IC50 is 0.0234 µM.
The same measure for `CCC1(OC)C(=O)N(C)c2cc3c(C)nnc(N[C@H](C)c4cccc(C(F)(F)C(C)(C)O)c4)c3cc21` (stereo partly drawn) [Compound 192, 5-[[(1R)-1-[3-(1,1-difluoro-2-hydroxy-2-methyl-propyl)phenyl]ethyl]amino]-3-ethyl-3-methoxy-1,8-dimethyl-pyrrolo[2,3-g]phthalazin-2-one]: 0.0162 µM; for `Cc1c([C@@H](C)Nc2nnc(C)c3cc4c(cc23)N(C)C(=O)C42CCCC2)cccc1C(F)(F)CO` [Compound 193, 1′,5′-dimethyl-8′-[[(1R)-1-[3-(1,1-difluoro-2-hydroxy-ethyl)-2-methyl-phenyl]ethyl]amino]spiro[cyclopentane-1,3′-pyrrolo[2,3-g]phthalazine]-2′-one]: 0.00871 µM.
Turning to `Cc1nnc(N[C@H](C)c2cccc(C(F)(F)C(C)(C)O)c2F)c2cc3c(cc12)C1(CCCC1)C(=O)N3C` [Compound 194, 1′,5′-dimethyl-8′-[[(1R)-1-[3-(1,1-difluoro-2-hydroxy-2-methyl-propyl)-2-fluoro-phenyl]ethyl]amino]spiro [cyclopentane-1,3′-pyrrolo[2,3-g]phthalazine]-2′-one], the IC50 was 0.00851 µM.
The same measure for `CCOC1(C)C(=O)N(C)c2cc3c(C)nnc(N[C@H](C)c4cccc(C(F)(F)CO)c4)c3cc21` (stereo partly drawn) [Compound 195, 3-ethoxy-1,3,8-trimethyl-5-[[(1R)-1-[3-(1,1-difluoro-2-hydroxy-ethyl)phenyl]ethyl]amino]pyrrolo [3,2-g]phthalazin-2-one]: 0.0209 µM; for `CCC1(OC)C(=O)N(C)c2cc3c(C)nnc(N[C@H](C)c4cccc(C(F)(F)CO)c4)c3cc21` (stereo partly drawn) [Compound 196, 5-[[(1R)-1-[3-(1,1-difluoro-2-hydroxy-ethyl)phenyl]ethyl]amino]-3-ethyl-3-methoxy-1,8-dimethyl-pyrrolo[2,3-g]phthalazin-2-one]: 0.0251 µM.
In the case of `CCC1(OC)C(=O)N(C)c2cc3c(C)nnc(N[C@H](C)c4cccc(C(F)(F)CO)c4F)c3cc21` (stereo partly drawn) [Compound 197, 5-[[(1R)-1-[3-(1,1-difluoro-2-hydroxy-ethyl)-2-fluoro-phenyl]ethyl]amino]-3-ethyl-3-methoxy-1,8-dimethyl-pyrrolo[2,3-g]phthalazin-2-one], the IC50 is 0.0145 µM.
Turning to `CCC1(OC)C(=O)N(C)c2cc3c(C)nnc(N[C@H](C)c4cccc(C(F)(F)CO)c4C)c3cc21` (stereo partly drawn) [Compound 198, 5-[[(1R)-1-[3-(1,1-difluoro-2-hydroxy-ethyl)-2-methyl-phenyl]ethyl]amino]-3-ethyl-3-methoxy-1,8-dimethyl-pyrrolo[2,3-g]phthalazin-2-one], the IC50 was 0.0195 µM.
The same measure for `CCOC1(C)C(=O)N(C)c2cc3c(C)nnc(N[C@H](C)c4cccc(C(F)(F)CO)c4C)c3cc21` (stereo partly drawn) [Compound 199, 3-ethoxy-1,3,8-trimethyl-5-[[(1R)-1-[3-(1,1-difluoro-2-hydroxy-ethyl)-2-methyl-phenyl]ethyl]amino]pyrrolo[3,2-g]phthalazin-2-one]: 0.0219 µM; for `CCc1nnc(N[C@H](C)c2cccc(C(F)(F)C(C)(C)O)c2F)c2cc3c(cc12)C(C)(OC)C(=O)N3C` (stereo partly drawn) [Compound 200, 5-ethyl-3-methoxy-1,3-dimethyl-8-[[(1R)-1-[3-(1,1-difluoro-2-hydroxy-2-methyl-propyl)-2-fluoro-phenyl]ethyl]amino]pyrrolo[2,3-g]phthalazin-2-one]: 0.0132 µM.

Values taken from US20250197407A1 (Jazz Pharmaceuticals Ireland Limited, priority 2022, published 2025).
